≈ marks a conversion by molar mass, not a printed value.
Key:
in vivo = settings: mouse, po, orally given to male mice (ddY), dead mice counted after 7 days, Behrens-Kaerber method, read-out: LD₅₀
Protocol: A suspension containing each of compounds of this invention in various concentrations was orally given to male mice (ddY) at a dose of 0.1 ml per 10 g of body weight. The number of dead mice was counted after 7 days, and the value of median lethal dose (LD₅₀, mg/kg) was calculated in accordance with the Behrens-Kaerber method.

A. laidlawii PG-8 = assay: Antimycoplasma activity, twofold agar dilution MIC; format: cell-based; settings: Acholeplasma laidlawii, PG8, 48 h; A. laidlawii PG-8; Chanock agar, 37 °C for 2 days, aerobically; calculated for free base; read-out: minimum inhibitory concentrations (MIC)
Protocol: (§1) The figures in the table show minimum inhibitory concentrations (MIC), (μg/ml), calculated for free base. Minimum inhibitory concentrations (MIC) were determined by the twofold agar dilution method. The media used were Chanock broth and agar [PPLD broth and agar (Difco) supplemented with 20 % horse serum and 10 % fresh yeast extract]. A 2-3 day broth culture of organisms was diluted with Chanock broth to a cell density of about 10^6 cells/ml. One loopful (about […]) of the organism dilution was spotted onto 10-ml drug containing Chanock agar in petri dishes using a multiple inoculator ([…] International). […] Incubation was performed anaerobically using the […] anaerobic system (BBL) for M. buccale, M. fermentans, M. hominis, M. orale and M. salivarium, and aerobically for other Mycoplasma spp. The MIC was defined as the lowest compound concentration at which no growth of organism was detected.

M. arginini G-230 = assay: Antimycoplasma activity, twofold agar dilution MIC; format: cell-based; settings: 48 h; M. arginini G-230; Chanock agar, 37 °C for 2 days, aerobically; calculated for free base; read-out: minimum inhibitory concentrations (MIC)
Protocol: as §1

M. salivarium PG-20 = assay: Antimycoplasma activity, twofold agar dilution MIC; format: cell-based; settings: 48 h; M. salivarium PG-20; Chanock agar, 37 °C for 2 days, anaerobically; calculated for free base; read-out: minimum inhibitory concentrations (MIC)
Protocol: as §1

M. hominis PG-21 = assay: Antimycoplasma activity, twofold agar dilution MIC; format: cell-based; settings: Metamycoplasma hominis, PG21, 48 h; M. hominis PG-21; Chanock agar, 37 °C for 2 days, anaerobically; calculated for free base; read-out: minimum inhibitory concentrations (MIC)
Protocol: as §1

M. fermentans PG-18 = assay: Antimycoplasma activity, twofold agar dilution MIC; format: cell-based; settings: Mycoplasmopsis fermentans, PG18, 48 h; M. fermentans PG-18; Chanock agar, 37 °C for 2 days, anaerobically; calculated for free base; read-out: minimum inhibitory concentrations (MIC)
Protocol: as §1

M. hyorhinis BST-7 = assay: Antimycoplasma activity, twofold agar dilution MIC; format: cell-based; settings: Mesomycoplasma hyorhinis, BST7, 48 h; M. hyorhinis BST-7; Chanock agar, 37 °C for 2 days, aerobically; calculated for free base; read-out: minimum inhibitory concentrations (MIC)
Protocol: as §1

M. pneumoniae Mac = assay: Antimycoplasma activity, twofold agar dilution MIC; format: cell-based; settings: Mycoplasmoides pneumoniae, 168 h; M. pneumoniae Mac; Chanock agar, 37 °C for 7 days, aerobically; calculated for free base; read-out: minimum inhibitory concentrations (MIC)
Protocol: as §1

M. buccale CH-20249 = assay: Antimycoplasma activity, twofold agar dilution MIC; format: cell-based; settings: 48 h; M. buccale CH-20249; Chanock agar, 37 °C for 2 days, anaerobically; calculated for free base; read-out: minimum inhibitory concentrations (MIC)
Protocol: as §1

M. orale CH-19299 = assay: Antimycoplasma activity, twofold agar dilution MIC; format: cell-based; settings: po, 48 h; M. orale CH-19299; Chanock agar, 37 °C for 2 days, anaerobically; calculated for free base; read-out: minimum inhibitory concentrations (MIC)
Protocol: as §1

C. Trachomatics G/ur 931 = assay: Antichlamydia activity, MIC in McCoy cells (inclusion bodies); format: cell-based; settings: C. Trachomatics G/ur 931; McCoy cells, 36 °C for 40-48 hours; calculated for free base; read-out: minimum inhibitory concentrations (MIC)
Protocol: (§2) The figures in the table show minimum inhibitory concentrations (MIC), (μg/ml), calculated for free base. Minimum inhibitory concentrations (MIC) were determined as follows. […] The cells were trypsinized and suspended in the same culture medium at a cell concentration of 1-2 x 10^5 cells/ml. One ml of the cell suspension was pipetted into flat-bottomed plastic tubes (14 mm in diameter) containing a cover slip (12 mm in diameter). The tubes were incubated in 5 % CO2-air at 36 °C for 20 hours. One-half ml of a chlamydial suspension (ca. 1-4 x 103 inclusion body forming units) was added into each tube, which was then centrifuged at 1500 x g for 60 minutes. The tubes were incubated for 1 hour at 36 °C. […] After further incubation at 36 °C for 40-48 hours, the cells on the cover glasses were stained with the Giemsa's solution. […] The MIC was defined as the lowest drug concentration where there were no inclusion bodies in all the cells on the cover slip.

[1] = tested on: C. Trachomatics G/ur 1242; assay: as above; format: cell-based; settings: C. Trachomatics G/ur 1242; McCoy cells, 36 °C for 40-48 hours; calculated for free base; read-out: minimum inhibitory concentrations (MIC)
Protocol: as §2

[2] = tested on: C. Trachomatics G/ur 1448; assay: as above; format: cell-based; settings: C. Trachomatics G/ur 1448; McCoy cells, 36 °C for 40-48 hours; calculated for free base; read-out: minimum inhibitory concentrations (MIC)
Protocol: as §2

[3] = tested on: C. Trachomatics G/ur 1317; assay: as above; format: cell-based; settings: C. Trachomatics G/ur 1317; McCoy cells, 36 °C for 40-48 hours; calculated for free base; read-out: minimum inhibitory concentrations (MIC)
Protocol: as §2

S. aureus Terajima = assay: In vitro antibacterial activity, twofold agar-dilution MIC; format: cell-based; settings: Staphylococcus aureus; S. aureus Terajima; Mueller-Hinton agar, 20-hour incubation at 37 °C; calculated for free base; read-out: minimum inhibitory concentrations (MIC)
Protocol: (§3) The figures in the table show minimum inhibitory concentrations (MIC) (µg/ml), calculated for free base. […] One loopful of an overnight culture of test organisms in Mueller-Hinton broth was inoculated onto 10 ml drug- containing agar layers in petri dishes. Bacterial inocula contained approximately 10⁶ colonyl-forming units. […] The MIC was defined as the lowest drug concentration which prevented visible bacterial growth.

E. coli NIHJ JC-2 = assay: as above; format: cell-based; settings: Escherichia coli, NIHJJC2; E. coli NIHJ JC-2; Mueller-Hinton agar, 20-hour incubation at 37 °C; calculated for free base; read-out: minimum inhibitory concentrations (MIC)
Protocol: as §3

S. aureus 209 JC-1 = assay: as above; format: cell-based; settings: Staphylococcus aureus, 209JC1; S. aureus 209 JC-1; Mueller-Hinton agar, 20-hour incubation at 37 °C; calculated for free base; read-out: minimum inhibitory concentrations (MIC)
Protocol: as §3

Cc1c(F)c(N2C[C@@H](C)N[C@@H](C)C2)c(F)c2c1c(=O)c(C(=O)O)cn2C1CC1 [Compound 1, 1-cyclopropyl-6,8-difluoro-5-methyl-7-(cis-3,5-demethyl-1-piperazinyl)-1,4-dihydro-4-oxoquinoline-3-carboxylic acid]
LD50 at 168 h (in vivo): > 2000 mg/kg
MIC (A. laidlawii PG-8): 0.05 µg/mL (≈ 0.128 µM)
MIC (M. arginini G-230): 0.025 µg/mL (≈ 0.0639 µM)
MIC (M. salivarium PG-20): 0.1 µg/mL (≈ 0.255 µM)
MIC (M. hominis PG-21): 0.05 µg/mL (≈ 0.128 µM)
MIC (M. fermentans PG-18): 0.025 µg/mL (≈ 0.0639 µM)
MIC (M. hyorhinis BST-7): 0.025 µg/mL (≈ 0.0639 µM)
MIC (M. pneumoniae Mac): 0.05 µg/mL (≈ 0.128 µM)
MIC (M. buccale CH-20249): 0.025 µg/mL (≈ 0.0639 µM)
MIC (M. orale CH-19299): 0.2 µg/mL (≈ 0.511 µM)
MIC (C. Trachomatics G/ur 931): 0.013 µg/mL (≈ 0.0332 µM)
MIC [1]: 0.025 µg/mL (≈ 0.0639 µM)
MIC [2]: 0.025 µg/mL (≈ 0.0639 µM)
MIC [3]: 0.013 µg/mL (≈ 0.0332 µM)
MIC (S. aureus Terajima): 0.05 µg/mL (≈ 0.128 µM)
MIC (E. coli NIHJ JC-2): 0.025 µg/mL (≈ 0.0639 µM)
MIC (S. aureus 209 JC-1): 0.05 µg/mL (≈ 0.128 µM)

Reference: EP0319906A2, “Novel quinoline derivatives, processes for preparation thereof and antibacterial agent containing them” (Dainippon Pharmaceutical Co., Ltd., priority 1987, dated 1989)
